Test results from ChEMBL document CHEMBL1201862, “PubChem BioAssay data set” (2004).
Values belong to the compound of their own block, whether it stands above or below them. Activity calls are given as the source filed them.

Key:
[1] = L. donovani amastigote growth inhibition, dose response, axenic amastigotes, plate reader, cherry pick (AID 651891); assay type: functional, cell-based; details: Leishmania donovani
[2] = intracellular Trypanosoma cruzi inhibitors in host cells – cell-based, plate reader, cherry-pick samples, set 3, dose response (AID 651818); assay type: functional;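 note: compounds incubated with infected cells for about four days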
[3] = T. b. rhodesiense proliferation inhibition, dose response, STIB900 strain, plate reader, cherry pick (AID 651893); assay type: functional, cell-based; details: Trypanosoma brucei
[4] = cytotoxicity in L-6 rat myocytes, dose response, cytotoxicity control, cell-based, plate reader, cherry-pick (AID 651896); assay type: functional
[5] = Inhibition of T. cruzi Tulahuen strain amastigotes in L-6 muscle cells Measured in Cell-Based and Microorganism Combination System Using Plate Reader - 2138-03_Inhibitor_Dose_CherryPick_Activity.; assay type: functional; details: Rattus norvegicus, L6
[6] = Inhibition of Plasmodium falciparum NF54 Measured in Cell-Based System Using Plate Reader - 2138-11_Inhibitor_Dose_CherryPick_Activity.; assay type: functional
[7] = molecular target: T1, Tyrosine-protein phosphatase non-receptor type 11 (Homo sapiens, UniProt Q06124); test: SHP2 phosphatase inhibition, dose response, selectivity assay for STEP inhibitor project, biochemical (AID 602367); assay type: functional; details: read-out: IC50_Mean
T1 sequence (Q06124 whole entry): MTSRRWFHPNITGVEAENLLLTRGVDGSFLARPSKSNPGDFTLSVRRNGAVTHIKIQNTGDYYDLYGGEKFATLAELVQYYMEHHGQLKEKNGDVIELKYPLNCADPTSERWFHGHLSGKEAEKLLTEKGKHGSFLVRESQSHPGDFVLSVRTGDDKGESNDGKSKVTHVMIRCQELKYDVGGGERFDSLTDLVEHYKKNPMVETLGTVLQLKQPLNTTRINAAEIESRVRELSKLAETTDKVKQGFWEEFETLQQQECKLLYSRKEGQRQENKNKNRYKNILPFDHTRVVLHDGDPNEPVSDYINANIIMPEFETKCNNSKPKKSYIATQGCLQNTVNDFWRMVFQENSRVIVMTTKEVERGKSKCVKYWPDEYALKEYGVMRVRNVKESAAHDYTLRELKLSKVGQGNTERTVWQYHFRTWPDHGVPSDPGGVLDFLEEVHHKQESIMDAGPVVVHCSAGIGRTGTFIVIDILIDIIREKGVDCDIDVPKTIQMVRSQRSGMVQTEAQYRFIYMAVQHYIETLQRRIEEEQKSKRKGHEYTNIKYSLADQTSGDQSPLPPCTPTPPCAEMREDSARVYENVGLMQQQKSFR

[8] = molecular target: Tyrosine-protein phosphatase non-receptor type 22 (Homo sapiens, UniProt Q9Y2R2); test: PTPN22 phosphatase inhibition, dose response, selectivity assay for STEP inhibitor project, biochemical (AID 624241); assay type: functional
Sequence of Tyrosine-protein phosphatase non-receptor type 22 (Q9Y2R2 whole entry): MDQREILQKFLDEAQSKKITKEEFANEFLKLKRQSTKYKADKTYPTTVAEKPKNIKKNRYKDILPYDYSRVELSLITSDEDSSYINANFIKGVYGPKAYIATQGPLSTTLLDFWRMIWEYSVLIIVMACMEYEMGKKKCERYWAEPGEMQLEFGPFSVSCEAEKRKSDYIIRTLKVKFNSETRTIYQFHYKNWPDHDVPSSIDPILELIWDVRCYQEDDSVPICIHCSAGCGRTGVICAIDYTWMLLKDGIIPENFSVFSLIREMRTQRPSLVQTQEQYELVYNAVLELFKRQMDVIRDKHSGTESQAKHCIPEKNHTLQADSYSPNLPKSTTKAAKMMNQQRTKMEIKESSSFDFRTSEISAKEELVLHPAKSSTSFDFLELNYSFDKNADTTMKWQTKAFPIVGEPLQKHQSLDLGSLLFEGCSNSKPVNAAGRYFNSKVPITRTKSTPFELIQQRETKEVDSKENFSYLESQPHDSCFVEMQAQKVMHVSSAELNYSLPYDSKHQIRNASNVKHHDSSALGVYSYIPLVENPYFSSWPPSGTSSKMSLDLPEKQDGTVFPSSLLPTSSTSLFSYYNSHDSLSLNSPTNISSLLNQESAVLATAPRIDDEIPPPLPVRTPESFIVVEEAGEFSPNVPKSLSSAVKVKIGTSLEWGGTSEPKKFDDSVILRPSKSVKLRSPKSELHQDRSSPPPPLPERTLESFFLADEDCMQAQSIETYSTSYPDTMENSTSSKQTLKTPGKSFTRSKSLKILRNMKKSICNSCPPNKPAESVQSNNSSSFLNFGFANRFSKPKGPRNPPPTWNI

[9] = molecular target: Dual specificity protein phosphatase 3 (Homo sapiens, UniProt P51452); test: VHR phosphatase inhibition, dose response, selectivity assay for STEP inhibitor project, biochemical (AID 602374); assay type: functional; details: read-out: IC50_Mean
Sequence of Dual specificity protein phosphatase 3 (P51452 whole entry): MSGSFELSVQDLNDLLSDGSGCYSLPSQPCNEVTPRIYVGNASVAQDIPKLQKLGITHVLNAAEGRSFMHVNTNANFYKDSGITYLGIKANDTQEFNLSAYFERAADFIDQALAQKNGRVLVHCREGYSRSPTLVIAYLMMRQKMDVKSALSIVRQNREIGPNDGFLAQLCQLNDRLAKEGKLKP

[10] = molecular target: Glucose-6-phosphate 1-dehydrogenase (Homo sapiens, UniProt P11413); test: human G6PD enzyme inhibitors, dose response, selectivity assay for P. falciparum G6PD inhibitor project, biochemical, fluorescence (AID 504792); assay type: functional
Sequence of Glucose-6-phosphate 1-dehydrogenase (P11413 whole entry): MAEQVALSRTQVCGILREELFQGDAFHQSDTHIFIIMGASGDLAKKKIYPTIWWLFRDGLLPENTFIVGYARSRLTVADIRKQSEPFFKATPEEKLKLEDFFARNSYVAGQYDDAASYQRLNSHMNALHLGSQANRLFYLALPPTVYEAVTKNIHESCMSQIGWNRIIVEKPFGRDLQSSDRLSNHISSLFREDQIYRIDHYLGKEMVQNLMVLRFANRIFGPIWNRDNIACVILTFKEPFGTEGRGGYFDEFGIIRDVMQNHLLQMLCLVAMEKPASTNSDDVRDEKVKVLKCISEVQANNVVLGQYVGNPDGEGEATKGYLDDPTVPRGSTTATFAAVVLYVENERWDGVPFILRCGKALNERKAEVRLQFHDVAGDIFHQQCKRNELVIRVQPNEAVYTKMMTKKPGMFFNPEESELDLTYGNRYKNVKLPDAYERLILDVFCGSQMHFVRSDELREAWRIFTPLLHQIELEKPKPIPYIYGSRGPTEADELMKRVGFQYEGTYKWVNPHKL

[11] = molecular target: T2, Nuclear receptor subfamily 0 group B member 1 (Homo sapiens, UniProt P51843); test: Luminescence-based cell-based high throughput dose response assay for inhibitors of the orphan nuclear receptor subfamily 0, group B, member 1 (DAX1; NR0B1). [Related pubchem assays (depositor defined):AID504766, AID504790]; assay type: functional
T2 sequence (P51843 whole entry): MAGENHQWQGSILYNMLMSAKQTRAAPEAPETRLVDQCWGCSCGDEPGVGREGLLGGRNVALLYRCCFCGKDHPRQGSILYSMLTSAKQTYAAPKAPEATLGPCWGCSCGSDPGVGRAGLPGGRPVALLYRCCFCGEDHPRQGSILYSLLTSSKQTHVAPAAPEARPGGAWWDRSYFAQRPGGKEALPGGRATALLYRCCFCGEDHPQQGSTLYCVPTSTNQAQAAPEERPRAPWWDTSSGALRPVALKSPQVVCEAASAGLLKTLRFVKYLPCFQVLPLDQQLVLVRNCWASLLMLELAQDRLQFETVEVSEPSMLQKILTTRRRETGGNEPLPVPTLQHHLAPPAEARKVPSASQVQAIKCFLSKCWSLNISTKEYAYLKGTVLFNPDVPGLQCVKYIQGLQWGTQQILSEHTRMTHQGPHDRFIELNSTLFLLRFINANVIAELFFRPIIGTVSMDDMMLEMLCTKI

[12] = test system: HEK293; test: cells; assay type: functional, cell-based; details: Homo sapiens
[13] = molecular target: T3, Tyrosine-protein phosphatase non-receptor type 5 (Homo sapiens, UniProt P54829); test: STEP phosphatase inhibitors, confirmation, biochemical, fluorescence intensity, uHTS hits (AID 602372); assay type: functional; details: read-out: IC50_Mean
T3 sequence (P54829 whole entry): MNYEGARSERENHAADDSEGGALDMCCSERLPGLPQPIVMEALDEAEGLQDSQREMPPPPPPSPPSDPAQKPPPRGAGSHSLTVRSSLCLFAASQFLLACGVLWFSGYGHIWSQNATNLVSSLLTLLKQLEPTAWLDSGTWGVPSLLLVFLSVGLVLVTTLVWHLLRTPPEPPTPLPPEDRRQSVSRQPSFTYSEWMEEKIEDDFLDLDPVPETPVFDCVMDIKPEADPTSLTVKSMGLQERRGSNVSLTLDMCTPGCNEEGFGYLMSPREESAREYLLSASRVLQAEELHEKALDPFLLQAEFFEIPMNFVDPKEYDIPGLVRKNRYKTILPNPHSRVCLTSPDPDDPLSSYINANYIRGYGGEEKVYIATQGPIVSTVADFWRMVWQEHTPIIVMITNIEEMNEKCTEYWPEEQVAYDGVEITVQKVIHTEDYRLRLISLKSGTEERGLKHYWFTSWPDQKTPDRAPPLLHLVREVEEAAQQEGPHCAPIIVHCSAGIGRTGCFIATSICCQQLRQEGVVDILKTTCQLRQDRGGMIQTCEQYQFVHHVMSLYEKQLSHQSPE

[14] = molecular target: T4, Sentrin-specific protease 8 (Homo sapiens, UniProt Q96LD8); assay type: functional
T4 sequence (Q96LD8 whole entry): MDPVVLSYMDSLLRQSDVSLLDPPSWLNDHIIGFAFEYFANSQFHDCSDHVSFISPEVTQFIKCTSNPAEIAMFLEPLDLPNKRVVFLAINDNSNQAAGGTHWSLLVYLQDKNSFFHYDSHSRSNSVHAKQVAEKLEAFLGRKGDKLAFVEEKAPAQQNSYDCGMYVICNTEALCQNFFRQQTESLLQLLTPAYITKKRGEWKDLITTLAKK

[15] = molecular target: T5, Caspase-3 (Homo sapiens, UniProt P42574); test: Dose-response confirmation of uHTS inhibitor hits of Sentrin-Specific Protease 8 in a Caspase-3 Fluorescence assay.; assay type: functional
T5 sequence (P42574 whole entry): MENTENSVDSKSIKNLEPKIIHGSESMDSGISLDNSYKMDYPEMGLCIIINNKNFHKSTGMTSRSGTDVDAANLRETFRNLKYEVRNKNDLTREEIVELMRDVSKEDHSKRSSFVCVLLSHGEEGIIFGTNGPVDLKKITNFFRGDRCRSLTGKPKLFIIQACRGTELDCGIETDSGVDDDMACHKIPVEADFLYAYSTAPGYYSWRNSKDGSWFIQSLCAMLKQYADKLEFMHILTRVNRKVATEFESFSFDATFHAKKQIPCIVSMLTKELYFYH

[16] = molecular target: T4, Sentrin-specific protease 8; assay type: functional; remark: listed apart in the source
[17] = molecular target: 5-hydroxytryptamine receptor 2A (Mus musculus, UniProt P35363); assay type: functional, cell-based;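 note: CHO-K1 cells with tagged receptor and beta-arrestin; agonist potency measured as compound-induced activation of the receptor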
Sequence of 5-hydroxytryptamine receptor 2A (P35363 whole entry): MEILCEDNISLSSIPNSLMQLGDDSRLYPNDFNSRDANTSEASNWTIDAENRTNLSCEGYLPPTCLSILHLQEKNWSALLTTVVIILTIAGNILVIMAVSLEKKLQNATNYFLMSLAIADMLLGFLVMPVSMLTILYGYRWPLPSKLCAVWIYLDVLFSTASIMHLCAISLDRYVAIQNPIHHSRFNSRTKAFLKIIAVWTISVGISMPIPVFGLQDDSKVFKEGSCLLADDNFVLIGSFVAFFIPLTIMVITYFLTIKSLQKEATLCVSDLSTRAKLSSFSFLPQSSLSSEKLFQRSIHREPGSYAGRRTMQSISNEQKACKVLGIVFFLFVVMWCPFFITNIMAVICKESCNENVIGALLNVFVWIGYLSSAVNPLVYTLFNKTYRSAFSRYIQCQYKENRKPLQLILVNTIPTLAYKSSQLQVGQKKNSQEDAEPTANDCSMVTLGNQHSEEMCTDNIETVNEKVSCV

[18] = molecular target: Mu-type opioid receptor (Homo sapiens, UniProt P35372); assay type: functional, cell-based;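 note: U2OS cells with beta-arrestin recruitment to OPRM1 by beta-gal complementation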
Sequence of Mu-type opioid receptor (P35372 whole entry): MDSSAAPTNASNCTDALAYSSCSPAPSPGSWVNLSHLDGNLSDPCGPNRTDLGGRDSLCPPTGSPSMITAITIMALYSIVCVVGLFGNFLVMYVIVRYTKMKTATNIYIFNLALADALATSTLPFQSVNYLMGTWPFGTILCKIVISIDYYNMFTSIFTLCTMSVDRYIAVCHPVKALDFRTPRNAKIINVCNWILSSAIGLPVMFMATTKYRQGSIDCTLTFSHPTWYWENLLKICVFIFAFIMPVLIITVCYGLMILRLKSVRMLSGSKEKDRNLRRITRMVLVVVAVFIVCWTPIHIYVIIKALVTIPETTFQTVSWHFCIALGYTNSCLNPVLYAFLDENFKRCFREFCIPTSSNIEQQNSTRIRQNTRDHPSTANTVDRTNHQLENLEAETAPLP

[19] = molecular target: Broad substrate specificity ATP-binding cassette transporter ABCG2 (Homo sapiens, UniProt Q9UNQ0); test: ABCG2 efflux pump inhibitors, dose response, Ig-MXP3 cells, flow cytometry (AID 1690); assay type: functional
Sequence of Broad substrate specificity ATP-binding cassette transporter ABCG2 (Q9UNQ0 whole entry): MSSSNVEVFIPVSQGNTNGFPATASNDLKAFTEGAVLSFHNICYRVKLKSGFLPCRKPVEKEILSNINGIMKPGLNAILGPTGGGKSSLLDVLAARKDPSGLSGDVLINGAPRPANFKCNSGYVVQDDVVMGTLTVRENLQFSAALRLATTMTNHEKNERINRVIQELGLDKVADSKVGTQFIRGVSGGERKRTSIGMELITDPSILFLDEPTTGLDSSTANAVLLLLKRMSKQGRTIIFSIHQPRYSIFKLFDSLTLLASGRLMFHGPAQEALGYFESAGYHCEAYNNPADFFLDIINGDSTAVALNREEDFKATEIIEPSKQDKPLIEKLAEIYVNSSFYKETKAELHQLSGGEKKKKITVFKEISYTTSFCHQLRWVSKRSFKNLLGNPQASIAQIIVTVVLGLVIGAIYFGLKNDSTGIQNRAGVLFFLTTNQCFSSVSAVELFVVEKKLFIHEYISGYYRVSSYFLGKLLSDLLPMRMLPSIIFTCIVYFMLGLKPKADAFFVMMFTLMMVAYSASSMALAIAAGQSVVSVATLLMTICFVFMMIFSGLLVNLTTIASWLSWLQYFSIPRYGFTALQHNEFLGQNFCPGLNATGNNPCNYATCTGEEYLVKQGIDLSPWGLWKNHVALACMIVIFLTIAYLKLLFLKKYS

Structure (SMILES): C[C@H]1CN([C@@H](C)CO)C(=O)c2cccc(NC(=O)c3ccncc3)c2O[C@H]1CN(C)Cc1ccccc1
IC50 [1]: > 100 µM (inactive) | AC50 [2]: 0.267 µM (active) | IC50 [3]: 51.5 µM (inactive) | IC50 [4]: > 100 µM (inactive) | IC50 [5]: 19.2 µM (inactive) | IC50 [6]: 19.2 µM (inactive)

Structure (SMILES): CCN1CCN(C(=S)c2ccc(O)cc2)CC1
IC50 [7]: 0.712 µM (active) | IC50 [8]: 45.1 µM (inactive) | IC50 [9]: 0.74 µM (active) | IC50 [10]: > 80 µM (inactive) | IC50 [11]: > 67.6 µM (inactive) | IC50 [12]: > 67.6 µM (inactive) | IC50 [13]: 20.1 µM (inactive)

Structure (SMILES): COc1ccc(OC)c(S(=O)(=O)N(C)CC(=O)N2CCc3ccccc3C2)c1
IC50 [14]: 8.07 µM (active) | IC50 [15]: 30.8 µM (active) | IC50 [16]: 9.57 µM (active)

Next, values leading:

EC50 [17]: 1.16 µM (active) | EC50 [18]: 92.5 µM (inactive)
Structure (SMILES): COc1cccc(CN2CCN(C(=O)c3ccco3)CC2)c1

EC50 [19]: 3.82 µM (active)
Structure (SMILES): Cc1cc(C)c(C#N)c(SCc2c(F)cccc2[N+](=O)[O-])n1
